From patent US11591336B2 (Relay Therapeutics, Inc., priority 2017, dated 2023)
Counter-ions that a name gives are not always drawn.

Target: SHP2 (Homo sapiens (Human), UniProt Q06124)
Assay: SHP2 Allosteric Inhibition Assay (DiFMUP prompt fluorescence)
Format: biochemical
Conditions: 0.25 nM SHP2 activated with 0.5 μM peptide IRS1_pY1172(dPEG8)pY1222; substrate DiFMUP 100 μM; 25° C.

IC50	SMILES
< 1000 nM	CC1CCN(c2n[nH]c3nc(N4CCC(C)(CN)CC4)cnc23)c2ccc(C(N)=O)cc21 (stereo not shown) [Compound 112, 1-(6-(4-(aminomethyl)-4-methylpiperidin-1-yl)-1H-pyrazolo[3,4-b]pyrazin-3-yl)-4-methyl-1,2,3,4-tetrahydroquinoline-6-carboxamide formate]
≥ 10000 nM	Cn1ccnc1Sc1n[nH]c2nc(N3CCC(C)(N)CC3)cnc12 [Compound 14, 4-methyl-1-(3-((1-methyl-1H-imidazol-2-yl)thio)-1H-pyrazolo[3,4-b]pyrazin-6-yl)piperidin-4-amine]
≥ 10000 nM	c1cncc(COC2CCCN(c3cnc4c(N5CCCc6ncccc65)n[nH]c4n3)C2)c1 (stereo not shown) [Compound 156]
< 1000 nM	C[C@@H]1OCC2(CCN(c3cnc4c(N5CCc6ncccc6C5)n[nH]c4n3)CC2)[C@@H]1N [Compound 267]
< 1000 nM	C[C@@H]1OCC2(CCN(c3cnc4c(N5CCCc6nc(-c7cncs7)ccc65)n[nH]c4n3)CC2)[C@@H]1N [Compound 356]
1000 to 10000 nM	CNC(=O)N1CCN(c2n[nH]c3nc(N4CCC5(CC4)CO[C@@H](C)[C@H]5N)cnc23)c2ncccc21 [Compound 313, 4-{6-[(3S,4S)-4-amino-3-methyl-2-oxa-8-azaspiro[4.5]decan-8-yl]-1H-pyrazolo[3,4-b]pyrazin-3-yl}-N-methyl-1H,2H,3H,4H-pyrido[2,3-b]pyrazine-1-carboxamide]
< 1000 nM	CCC1CCN(c2n[nH]c3nc(N4CCC(C)(CN)CC4)cnc23)c2ccccc21 (single isomer, unassigned) [Compound 102, hydrochloride]
< 1000 nM	Cc1cccc2c1CCCN2c1n[nH]c2nc(N3CCC4(CC3)CO[C@@H](C)[C@H]4N)cnc12 [Compound 330]
< 1000 nM	CN1CCN(c2n[nH]c3nc(N4CCC(C)(CN)CC4)cnc23)c2ccccc21 [Compound 127]
< 1000 nM	CCC1(CN)CCN(c2cnc3c(N4CCCc5ncccc54)n[nH]c3n2)CC1 [Compound 98, (1-(3-(3,4-dihydro-1,5-naphthyridin-1(2H)-yl)-1H-pyrazolo[3,4-b]pyrazin-6-yl)-4-ethylpiperidin-4-yl)methanamine dihydrochloride]
< 1000 nM	CC(C)N1CCN(c2n[nH]c3nc(N4CCC5(CC4)CO[C@@H](C)[C@H]5N)cnc23)c2ccc(C#N)cc21 [Compound 409]
< 1000 nM	C[C@@H]1OCC2(CCN(c3cnc4c(N5CCN(CCF)c6cc(C#N)ccc65)n[nH]c4n3)CC2)[C@@H]1N [Compound 529]
≥ 10000 nM	CC1(C)CCN(c2cnc3c(N4CCCc5ncccc54)n[nH]c3n2)CC1 [Compound 141]
< 1000 nM	Cn1cc(-c2ccc3c(n2)OCCN3c2n[nH]c3nc(N4CCC(C)(CN)CC4)cnc23)cn1 [Compound 188]
1000 to 10000 nM	CC1(CN)CCN(c2cnc3c(N4CCc5cnccc54)n[nH]c3n2)CC1 [Compound 125]
< 1000 nM	C[C@@H]1OCC2(CCN(c3cnc4c(N5CCCc6nc(-c7cnn(C8COC8)c7)ccc65)n[nH]c4n3)CC2)[C@@H]1N [Compound 372, (3S,4S)-3-methyl-8-(3-{6-[1-(oxetan-3-yl)-1H-pyrazol-4-yl]-1,2,3,4-tetrahydro-1,5-naphthyridin-1-yl}-1H-pyrazolo[3,4-b]pyrazin-6-yl)-2-oxa-8-azaspiro[4.5]decan-4-amine]
< 1000 nM	C[C@@H]1OCC2(CCN(c3cnc4c(N5CCc6ccncc6C5)n[nH]c4n3)CC2)[C@@H]1N [Compound 272]

IC50	SMILES
≥ 10000 nM	CC1CNCC(Sc2n[nH]c3nc(N4CCC(C)(N)CC4)cnc23)C1 (stereo not shown) [Cmpd 490]
< 1000 nM	C[C@@H]1OCC2(CCN(c3cnc4c(N5CCCc6c(CS(C)(=O)=O)cccc65)n[nH]c4n3)CC2)[C@@H]1N [Compound 455]
< 1000 nM	C[C@@H]1OCC2(CCN(c3cnc4c(N5CCCc6nc(C(N)=O)ccc65)n[nH]c4n3)CC2)[C@@H]1N [Compound 243, 5-(6-((3S,4S)-4-amino-3-methyl-2-oxa-8-azaspiro[4.5]decan-8-yl)-1H-pyrazolo[3,4-b]pyrazin-3-yl)-5,6,7,8-tetrahydro-1,5-naphthyridine-2-carboxamide]
< 1000 nM	C[C@@H]1OCC2(CCN(c3cnc4c(N5CCN(C(N)=O)c6ncccc65)n[nH]c4n3)CC2)[C@@H]1N [Compound 258, 1-{6-[(3S,4S)-4-amino-3-methyl-2-oxa-8-azaspiro[4.5]decan-8-yl]-1H-pyrazolo[3,4-b]pyrazin-3-yl}-1H,2H,3H,4H-pyrido[2,3-b]pyrazine-4-carboxamide hydrochloride]
< 1000 nM	C[C@H]1CCN(c2n[nH]c3nc(N4CCC(C)(CN)CC4)cnc23)c2ccc(C#N)cc21 (single isomer, unassigned) [Compound 116]
< 1000 nM	CNC(=O)c1cccc2c1CCN2c1n[nH]c2nc(N3CCC(C)(CN)CC3)cnc12 [Compound 107, 1-(6-(4-(aminomethyl)-4-methylpiperidin-1-yl)-1H-pyrazolo[3,4-b]pyrazin-3-yl)-N-methylindoline-4-carboxamide]
< 1000 nM	C[C@@H]1OCC2(CCN(c3cnc4c(N5CCc6ccccc6C5=O)n[nH]c4n3)CC2)[C@@H]1N [Compound 270]
≥ 10000 nM	c1ccc(C2CCCCN2c2cnc3c(N4CCCc5ncccc54)n[nH]c3n2)cc1 (stereo not shown) [Compound 162]
< 1000 nM	C[C@@H]1OCC2(CCN(c3cnc4c(N5CC[C@H](C)c6cc(-c7ncon7)ccc65)n[nH]c4n3)CC2)[C@@H]1N [Compound 227, (3S,4S)-3-methyl-8-(3-((S)-4-methyl-6-(1,2,4-oxadiazol-3-yl)-3,4-dihydroquinolin-1(2H)-yl)-1H-pyrazolo[3,4-b]pyrazin-6-yl)-2-oxa-8-azaspiro[4.5]decan-4-amine]
< 1000 nM	CCCn1cc(-c2ccc3c(n2)CCCN3c2n[nH]c3nc(N4CCC5(CC4)CO[C@@H](C)[C@H]5N)cnc23)cn1 [Compound 311, (3S,4S)-3-methyl-8-{3-[6-(1-propyl-1H-pyrazol-4-yl)-1,2,3,4-tetrahydro-1,5-naphthyridin-1-yl]-1H-pyrazolo[3,4-b]pyrazin-6-yl}-2-oxa-8-azaspiro[4.5]decan-4-amine]
1000 to 10000 nM	CC1(N)CCN(c2cnc3c(N4CCCc5cnccc54)n[nH]c3n2)CC1 [Compound 30]
< 1000 nM	CC1(CN)CCN(c2cnc3c(N4CCCc5c(-c6cc(F)c(F)c(F)c6)cccc54)n[nH]c3n2)CC1 [Compound 72]
< 1000 nM	CC1(N)CCN(c2cnc3c(Sc4cccc(Cl)c4Cl)n[nH]c3n2)CC1 [Compound 13, 1-(3-((2,3-dichlorophenyl)thio)-1H-pyrazolo[3,4-b]pyrazin-6-yl)-4-methylpiperidin-4-amine]
< 1000 nM	Cc1ccncc1-c1cccc2c1CCCN2c1n[nH]c2nc(N3CCC(C)(N)CC3)cnc12 [Compound 67]
< 1000 nM	CC1(CN)CCN(c2cnc3c(N4CCCc5c(Cl)cccc54)n[nH]c3n2)CC1 [Compound 130]
< 1000 nM	C[C@@H]1OCC2(CCN(c3cnc4c(N5CC[C@H](C)c6nc(-c7cnn(C)c7)ccc65)n[nH]c4n3)CC2)[C@@H]1N [Compound 284, (3S,4S)-3-methyl-8-{3-[(4S)-4-methyl-6-(1-methyl-1H-pyrazol-4-yl)-1,2,3,4-tetrahydro-1,5-naphthyridin-1-yl]-1H-pyrazolo[3,4-b]pyrazin-6-yl}-2-oxa-8-azaspiro[4.5]decan-4-amine]
< 1000 nM	CC(=O)N1CCN(c2n[nH]c3nc(N4CCC5(CC4)CO[C@@H](C)[C@H]5N)cnc23)c2ccc(C#N)cc21 [Compound 302]
